# Measured values: publication PMC11239005, “Preclinical studies of RA475, a guanidine-substituted spirocyclic candidate RPN13/ADRM1 inhibitor for treatment of ovarian cancer” (PLOS ONE, 2024)
# Several values for one entry are separate records, joined by “and”; a condition that tells them apart may be missing. Equal entries are not always repeated. Where two headings read alike, the source gives them in different places.
# Experiments:
# [1] = test system: SKOV3; assay: MTT cytotoxicity assay, SKOV3; assay type: cell-based; conditions: Homo sapiens, SK-OV-3, SKOV3, 72 h
# Protocol: (§1) All cell lines were obtained from the American Type Culture Collection (ATCC) and cultured in the specified medium supplemented with 10% fetal bovine serum, 100 IU/mL penicillin, and 100 μg/mL streptomycin at 37°C in a humidified 5% CO2/95% air incubator. Synthesis of new compounds is described in S1 File, and >95% purity of RA475, Up284 and its analogs were confirmed by NMR and MS. To assess drug cytotoxicity, cells were seeded at 2,500 cells/well (10,000 cells/well for MM lines) in 100 μL medium in 96-well plate as triplicates and after 24 h treated with compounds for a further 72 h. To assess cytotoxicity, the cells were incubated for 2 h at 37°C according to the manufacturer’s protocol with the Thiazolyl Blue Tetrazolium Bromide (20 μL/well of 5 mg/mL stock solution in water) (Sigma, M5655) and A570 measured using a Benchmark Plus microplate spectrophotometer (BIO-RAD). IC50 was estimated using Graphpad Prism 7 software.
# [2] = test system: Hep3B; assay: MTT cytotoxicity assay, Hep3B; assay type: cell-based; conditions: Homo sapiens, 72 h
# Protocol: as §1
# [3] = test system: cancer lines in S1B Table; assay: MTT cytotoxicity, summary over cell line panel; assay type: cell-based; conditions: for IC50: 72 h, read-out: mean IC50 across all cancer lines in S1B Table
# Protocol: as §1
# Modifications of Up284 were sought to improve its drug-like properties without significant compromise of its activity in vivo, and several new compounds were synthesized (S1 File). Based on our prior studies of its pharmacophore, the central ring nitrogen was the most logical for addition of charged moieties, including RA475 and RA484. We also examined a change to either 3,4 spiro rings (RA477, RA479), or addition of 3-Fluoro substitutions (RA482) (S1 File). Our focus is developing iRPN13 to treat ovarian cancer resistant to standard of care drug regimens.
# We elected to focus on RA475 and expanded the analysis in a larger panel of cell lines including those from common cancer types and normal tissues. […] This panel included another pair of cell lines isolated from another ovarian cancer patient with drug-resistant disease (PEO4) and pre-treatment (PEO1), and both were similarly sensitive to RA475.
# [4] = target: hERG potassium channel (Homo sapiens, UniProt Q12809); assay: hERG Thallium Flux FLIPR-Based Assay
# Protocol: Supplementary file pone.0305710.s008.tif: S8 Fig hERG inhibition in vitro. […] Concentration range of 0.023–50 μM (8 points, 3-fold serial dilutions) B) Dose-response curve for RA475. Concentration range of 0.045–100 μM (8 points, 3-fold serial dilutions). C) Dose-response curve for Up284. Concentration range of 0.045–100 μM (8 points, 3-fold serial dilutions). (TIF)
# [5] = test system: HFF; assay: MTT cytotoxicity assay, HFF; assay type: cell-based; conditions: Homo sapiens, HFF (normal cells), 72 h
# Protocol: as §1
# [6] = test system: MDA-MB-468; assay: MTT cytotoxicity assay, MDA-MB-468; assay type: cell-based; conditions: Homo sapiens, MDA-MB-468, 72 h
# Protocol: as §1
# [7] = LogD measurement, shake-flask octanol/PBS pH 7.4; assay type: physicochemical; conditions: for D: octanol/PBS pH 7.4, single injections 1-3; for LogD, pH 7.4: single injections 1-3
# Protocol: Incubations were carried out in Eppendorf-type polypropylene microtubes in triplicates. A 2.5 μL aliquot of 20 mM DMSO stock of a test compound was added into the previously mutually saturated mixture containing 500 μL of PBS (pH 7.4) and 500 μL of octanol. The solution was allowed to mix in a rotator for 1 hour at 30 rpm. Phase separation was assured by centrifugation for 2 min at 6000 rpm. The octanol phase was diluted 100-fold with 40% acetonitrile, and the aqueous phase (PBS buffer) was diluted 10-fold. The samples (both phases) were analyzed using an HPLC system coupled with a tandem mass spectrometer. […] Calculations of the partition ratios were carried out using the equation below. D=do.So/dp.Sp where:
# So–peak area of the analyte in octanol phase
# SP–peak area of the analyte in PBS buffer
# do–dilution coefficient for octanol phase
# [8] = test system: 4T1; assay: MTT cytotoxicity assay, 4T1; assay type: cell-based; conditions: Mus musculus, 4T1, 72 h
# Protocol: as §1
# [9] = test system: BT549; assay: MTT cytotoxicity assay, BT549; assay type: cell-based; conditions: Homo sapiens, BT-549, BT549, 72 h
# Protocol: as §1
# [10] = test system: HepG2; assay: MTT cytotoxicity assay, HepG2; assay type: cell-based; conditions: Homo sapiens, HepG2, 72 h
# Protocol: as §1
# [11] = test system: MCF7; assay: MTT cytotoxicity assay, MCF7; assay type: cell-based; conditions: Homo sapiens, MCF7, 72 h
# Protocol: as §1
# [12] = GSH reactivity assay; assay type: physicochemical; conditions: for Average Area Ratio Normalized: with GSH divided by without GSH; for remaining at 1.5 h, 20 μM: pH 7.4
# Protocol: Test compounds (20 μM, final organic solvent concentration 10%) were incubated with 1 mM GSH in phosphate buffer (100 mM), pH 7.4 at 37°C, shaking at 300 rpm. In the control reactions (“without GSH”), the GSH was substituted with phosphate buffer. Five time points over 1.5 h were analyzed (0, 0.33, 0.66, 1 and 1.5 h). The reactions were stopped by adding 50 μL aliquots of the reaction mixture to 9 volumes of methanol: water: formic acid (10:10:0.04) with internal standard (IS). Samples were analyzed using HPLC system coupled with a tandem mass spectrometer. Average (triplicate) area ratios were calculated. GSH reactivity was calculated taking into account the possible instability of the compound during incubation. All calculations were performed using normalized data obtained by dividing the average area ratio of the test compound incubated with GSH by the average area ratio of the test compound incubated without GSH. Natural logarithms of the results were fitted to linear regression, and half-life (t1/2) was calculated as: t1/2=ln2/-slope
# [13] = test system: DLD1; assay: MTT cytotoxicity assay, DLD1; assay type: cell-based; conditions: Homo sapiens, DLD-1, DLD1, 72 h
# Protocol: as §1
# [14] = 0 h, 1 mM GSH, 20 μM compound, pH 7.4, 37°C
# [15] = 1 mM GSH in phosphate buffer, 1.5 h, read-out: % Remaining with GSH, normalized
# [16] = 1 mM GSH in phosphate buffer, 1 mM GSH, pH 7.4, 37°C, read-out: t1/2 with GSH, normalized (converted)
# [17] = phosphate buffer, pH 7.4, 37°C, read-out: t1/2 w/o GSH
# [18] = phosphate buffer, 1.5 h, read-out: % Remaining w/o GSH
# hERG potassium channel, sequence (Q12809 whole entry): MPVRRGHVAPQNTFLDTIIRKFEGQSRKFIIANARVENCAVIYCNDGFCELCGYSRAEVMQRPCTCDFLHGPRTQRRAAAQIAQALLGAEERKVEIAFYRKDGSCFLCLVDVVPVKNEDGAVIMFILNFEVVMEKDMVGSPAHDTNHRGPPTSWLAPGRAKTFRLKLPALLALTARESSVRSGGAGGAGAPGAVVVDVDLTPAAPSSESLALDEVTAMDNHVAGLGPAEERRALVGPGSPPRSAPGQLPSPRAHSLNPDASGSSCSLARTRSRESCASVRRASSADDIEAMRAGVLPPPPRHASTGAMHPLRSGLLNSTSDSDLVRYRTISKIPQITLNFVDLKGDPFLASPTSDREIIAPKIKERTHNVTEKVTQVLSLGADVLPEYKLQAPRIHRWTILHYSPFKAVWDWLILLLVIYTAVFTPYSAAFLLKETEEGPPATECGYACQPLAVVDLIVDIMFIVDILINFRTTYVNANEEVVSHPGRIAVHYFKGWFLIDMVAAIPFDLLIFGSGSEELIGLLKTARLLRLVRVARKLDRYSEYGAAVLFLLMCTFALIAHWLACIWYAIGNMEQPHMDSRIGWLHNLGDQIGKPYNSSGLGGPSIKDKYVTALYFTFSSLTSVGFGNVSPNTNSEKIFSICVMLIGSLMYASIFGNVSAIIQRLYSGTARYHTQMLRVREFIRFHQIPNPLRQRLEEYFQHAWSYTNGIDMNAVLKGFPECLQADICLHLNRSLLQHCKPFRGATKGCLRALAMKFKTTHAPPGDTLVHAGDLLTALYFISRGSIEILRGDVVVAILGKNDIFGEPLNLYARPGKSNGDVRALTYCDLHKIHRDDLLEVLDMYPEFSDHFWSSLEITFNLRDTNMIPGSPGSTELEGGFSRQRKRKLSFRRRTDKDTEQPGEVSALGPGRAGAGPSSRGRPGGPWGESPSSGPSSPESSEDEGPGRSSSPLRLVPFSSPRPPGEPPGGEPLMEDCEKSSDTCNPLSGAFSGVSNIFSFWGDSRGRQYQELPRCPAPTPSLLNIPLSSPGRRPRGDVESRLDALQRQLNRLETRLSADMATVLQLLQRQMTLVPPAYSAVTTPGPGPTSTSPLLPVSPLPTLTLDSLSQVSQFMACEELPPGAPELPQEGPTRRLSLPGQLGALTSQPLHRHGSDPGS
SMILES,IC50 [1] [nM],IC50 [2] [nM],IC50 [3] [nM],IC50 [4] [nM],IC50 [5] [nM],IC50 [6] [nM],D [7],"LogD, pH 7.4 [7]",IC50 [8] [nM],IC50 [9] [nM],IC50 [10] [nM],IC50 [11] [nM],time within which compound reacted with GSH [12] [min],"Average Area Ratio with GSH [12, 14]","Average Area Ratio without GSH ([12]; 0 h, phosphate buffer)",Average Area Ratio Normalized ([12]; 0 h),"remaining at 1.5 h, 20 μM [12, 15] [%]","half-life at 20 μM [12, 16] [min]","Average Area Ratio with GSH ([12]; 0.33 h, 1 mM GSH)","Average Area Ratio without GSH ([12]; 0.33 h, phosphate buffer)",further results
"N#Cc1ccc(/C=C2/C(=O)/C(=C/c3ccc(C#N)cc3)C23CCNCC3)cc1 [Up284, reference compound]",71,160,120,4300,> 2500,72,1.15E+02 and 1.32E+02 and 1.44E+02,2.158,120,70,90,690,≤ 30,1.00E+02,1.00E+02,8.68E+01,10,12.2,1.76E+01,1.03E+02,"logD ([7]; n-octanol/PBS, pH 7.4, mean of three injections): 2.12; logD ([7]; n-octanol/PBS, pH 7.4, single injections 1-3): 2.06; Average Area Ratio Normalized ([12]; 0.33 h): 1.48E+01; Average Area Ratio with GSH ([12]; 0.66 h, 1 mM GSH): 1.18E+01; Average Area Ratio without GSH ([12]; 0.66 h, phosphate buffer): 1.13E+02; Average Area Ratio Normalized ([12]; 0.66 h): 9.11E+00; Average Area Ratio with GSH ([12]; 1 h, 1 mM GSH): 1.20E+01; Average Area Ratio without GSH ([12]; 1 h, phosphate buffer): 1.18E+02; Average Area Ratio Normalized ([12]; 1 h): 8.78E+00; Average Area Ratio with GSH ([12]; 1.5 h, 1 mM GSH): 1.30E+01; Average Area Ratio without GSH ([12]; 1.5 h, phosphate buffer): 1.18E+02; Average Area Ratio Normalized ([12]; 1.5 h): 9.58E+00; half-life at 20 μM [12, 17]: > 360 min; remaining at 1.5 h, 20 μM [12, 18]: 118%; IC50 [13]: 110 nM"
"Cl.Cl.N#Cc1ccc(/C=C2/C(=O)/C(=C/c3ccc(C#N)cc3)C23CCN(C(=N)N)CC3)cc1 [RA475, 1,3-bis((E)-4-cyanobenzylidene)-2-oxo-7-azaspiro[3.5]nonane-7-carboximidamide dihydrochloride]",294,997,420,85800,> 2500,292,3.84E+01 and 4.27E+01 and 3.16E+01,1.631 and 1.5,261,229,241,742,≤ 30,1.00E+02,1.00E+02,9.10E+01,8,12.2,2.00E+01,9.44E+01,"fold less potent than Up284 ([3]; overall, cell line panel): approximately 3 fold; logD ([7]; pH 7.4, mean of three injections): 1.58; logD ([7]; pH 7.4, single injections 1-3): 1.58; Average Area Ratio Normalized ([12]; 0.33 h): 1.93E+01; Average Area Ratio with GSH ([12]; 0.66 h, 1 mM GSH): 1.02E+01; Average Area Ratio without GSH ([12]; 0.66 h, phosphate buffer): 9.60E+01; Average Area Ratio Normalized ([12]; 0.66 h): 9.62E+00; Average Area Ratio with GSH ([12]; 1 h, 1 mM GSH): 8.18E+00; Average Area Ratio without GSH ([12]; 1 h, phosphate buffer): 9.22E+01; Average Area Ratio Normalized ([12]; 1 h): 8.07E+00; Average Area Ratio with GSH ([12]; 1.5 h, 1 mM GSH): 7.92E+00; Average Area Ratio without GSH ([12]; 1.5 h, phosphate buffer): 9.03E+01; Average Area Ratio Normalized ([12]; 1.5 h): 7.98E+00; half-life at 20 μM [12, 17]: > 360 min; remaining at 1.5 h, 20 μM [12, 18]: 90%; IC50 [13]: 495 nM"
